Reference: patent publication US7887818B2, “Neospora caninum vaccine” (The United States of America as represented by the …, priority 2008, dated 2011)

How the values were obtained:
[1] = tested on: NcCyP; experiment: ELISA of NcCyP-specific antibody levels in sera of vaccinated mice; type: in vivo, N. caninum; details: mouse sera 1:100, both trials, 3 weeks after challenge
Description: (§1) Adult female BALB/c mice (10-12 weeks old; 15 per group; National Cancer Institute, Frederick, Md.) were immunized s.c. in the lower back with a dose of 20 μg of rNcCyP, rNcSRS2, or 20 μg each of NcCyP and NcSRS2 formulated with adjuvants ImmuMax-SR® (a chitosan-based oil emulsion formulation [U.S. Pat. No. 5,980,912; Nov. 9, 1999]; (Repros Therapeutics Inc., formerly Zonagen Inc., TX) and CpG (ImmunoEasy, Qiagen) (Groups 1, 2, and 3). Control groups received non-recombinant antigen formulated with adjuvants ImmuMax-SR® and CpG (Group 4) or RPMI 1640 alone (Groups 5 and 6). The mice were given a secondary immunization 3 weeks later with the same preparation used in the primary immunization. All mice except for those in Group 6 were challenged s.c. with 10^5 N. caninum tachyzoites (NC1 isolate) in 50 μl RPMI 1640 three weeks following the secondary immunization. Group 6 mice received RPMI 1640 only and remained uninfected throughout the experiment (Table 1). […]
(§2) Antigen-specific antibody levels of vaccinated mice were determined by ELISA using purified rNcCyP or rNcSRS2. […] The wells were incubated with alkaline phosphatase-labeled goat anti-mouse IgG (H+L ch. sp., 1:5,000, Sigma) for 1 hr at RT, followed by addition of p-nitrophenyl phosphate substrate (Sigma), and reading on a microtiter plate reader at […].

[2] = tested on: NcSRS2; experiment: ELISA of NcSRS2-specific antibody levels in sera of vaccinated mice; type: in vivo, N. caninum; details: mouse sera 1:100, both trials, 3 weeks after challenge
Description: as §1, §2

[3] = tested on: NcCyP; experiment: Western blot detection of anti-NcCyP antibodies in mouse sera (NcAg as antigen); type: in vivo, N. caninum; details: for percent of mice with detectable antibodies against NcCyP: overall data from both trials
Description: (§3) Adult female BALB/c mice (10-12 weeks old; 15 per group; National Cancer Institute, Frederick, Md.) were immunized s.c. in the lower back with a dose of 20 μg of rNcCyP, rNcSRS2, or 20 μg each of NcCyP and NcSRS2 formulated with adjuvants ImmuMax-SR® (a chitosan-based oil emulsion formulation [U.S. Pat. No. 5,980,912; Nov. 9, 1999]; (Repros Therapeutics Inc., formerly Zonagen Inc., TX) and CpG (ImmunoEasy, Qiagen) (Groups 1, 2, and 3). Control groups received non-recombinant antigen formulated with adjuvants ImmuMax-SR® and CpG (Group 4) or RPMI 1640 alone (Groups 5 and 6). The mice were given a secondary immunization 3 weeks later with the same preparation used in the primary immunization. All mice except for those in Group 6 were challenged s.c. with 10^5 N. caninum tachyzoites (NC1 isolate) in 50 μl RPMI 1640 three weeks following the secondary immunization. Group 6 mice received RPMI 1640 only and remained uninfected throughout the experiment (Table 1). All mice were euthanized 3 weeks after challenge infection, and brain tissue and blood were collected at necropsy and processed for Neospora DNA and serum antibody analysis as described (Liddell et al. 1999b. Int J. Parasitol. 29: 1583-1587). Animal use and care of the present study was approved by the BARC Animal Use and Care Committee in accordance with appropriate regulations.
The presence of specific antibodies to NcCyP or NcSRS2 was also confirmed with Western blotting using NcAg as antigen (FIG. 5). In brief, N. caninum tachyzoite protein (equivalent to 10^6 tachyzoites/blot strip) were fractionated by SDS-PAGE under reducing conditions and transblotted to Immobilon membrane (Millipore) in a semi-dry blot apparatus (BioRad). Low-range molecular weight markers (BioRad) were electrophoresed in a separate well to allow for Mr estimation of native N. caninum tachyzoite protein. After blotting, the membranes were cut into vertical strips, treated with blocking agent (PBS-2% non-fat dry milk) for 30 min at RT, and then incubated for 2 hr at RT with a 1:100 dilution of serum from individual mice in each treatment group. The blot strips were then incubated for 1 hr with biotinylated goat anti-mouse IgG (H+L ch. sp., 1:1000 dilution, Sigma Chemical Co.), followed by alkaline-phosphatase-labeled avidin (1:25,000 dilution, Sigma), and developed with NBT-BCIP substrate (Pierce). The blots were washed 3 times between each incubation step with PBS-0.05% Tween 20 (Sigma).

[4] = tested on: NcSRS2; experiment: Western blot detection of anti-NcSRS2 antibodies in mouse sera (NcAg as antigen); type: in vivo, N. caninum
Description: as §3, with “regulations. […]” for “regulations.”

[5] = tested on: N. caninum tachyzoites (NC1 isolate); experiment: Vaccination and N. caninum tachyzoite challenge; N. caninum-specific Nc5 PCR on brain tissue; type: in vivo, BALB/c mice; details: for Positive/Total = number of mice brain positive for N. caninum DNA/total mice in the group: 3 weeks after s.c. challenge with 10^5 tachyzoites; for level of protection against challenge infection compared to control groups: vs non-recombinant- or non-vaccinated groups
Description: as §3
Mouse brain tissue was extracted for DNA using standard procedures (Jenkins et al. 2004, supra). The presence of N. caninum in brain tissue was determined by N. caninum-specific Nc5 PCR using Np6/Np21 primers (Muller et al. 1996. J. Clin. Microbiol. 34: 2850-2852; Yamage et al. 1996. J. Parasitol. 82: 272-279) and an internal standard to control for false negative reactions as described (Jenkins et al. 2004a, supra; Liddell et al. 1999a, supra).

Substance: Group 1: recombinant Neospora caninum cyclophilin protein (SEQ ID NO:2), 20 μg formulated with adjuvants ImmuMax-SR and CpG
- levels of NcCyP-specific antibodies (ELISA) compared to other groups [1]: significantly higher (p<0.01)
- levels of NcSRS2-specific antibodies (ELISA) compared to other groups [2]: higher (p<0.05)
- number of mice with detectable anti-NcCyP Ab in total mice of the group ([3]; Trial I): 11/14^3
- number of mice with detectable anti-NcCyP Ab in total mice of the group ([3]; Trial II): 12/15
- percent of mice with detectable antibodies against NcCyP ([3]; listed as NcCyP): about 77%
- percent of mice with detectable antibodies against NcCyP ([3]; listed as rNcCyP): 78%
- number of mice with detectable anti-NcSRS2 Ab in total mice of the group ([4]; Trial I): 0/14
- number of mice with detectable anti-NcSRS2 Ab in total mice of the group ([4]; Trial II): 0/15
- Positive/Total = number of mice brain positive for N. caninum DNA/total mice in the group ([5]; Trial I): 1/15
- Positive/Total = number of mice brain positive for N. caninum DNA/total mice in the group ([5]; Trial II): 3/15
- average percent of mice brain-positive for N. caninum ([5]; average of both trials): 13%
- percent protection ([5]; for both trials, (mice brain negative for Nc DNA/total)x100, formulated with ImmuMax-SR/CpG): 80-93%
- Positive/Total (Mean) ([5]; mean positive/total from trials I and II): 2/15
- percent of mice brain-positive for N. caninum, range over the trials ([5]; range of trials I and II): 7-20%
- level of protection against challenge infection compared to control groups ([5]; listed as NcCyP): significantly higher protection
- level of protection against challenge infection compared to control groups ([5]; listed as rNcCyP): higher (p<0.001) levels of protection
